Measurements: patent publication US20020172670A1 (priority 2000, published 2002)

Tests used:
dGMII [1] = target: T1, dGMII (Drosophila melanogaster, UniProt Q24451); settings: cited from earlier work
T1 construct: The resulting constructs consist of the dGMII catalytic region with a short length of the stalk region; Bip secretion signal (N); made in house; host or cells: Drosophila Schneider S2 cells, stably transfected, protein secreted into the medium
T1 sequence (Q24451 76-1108): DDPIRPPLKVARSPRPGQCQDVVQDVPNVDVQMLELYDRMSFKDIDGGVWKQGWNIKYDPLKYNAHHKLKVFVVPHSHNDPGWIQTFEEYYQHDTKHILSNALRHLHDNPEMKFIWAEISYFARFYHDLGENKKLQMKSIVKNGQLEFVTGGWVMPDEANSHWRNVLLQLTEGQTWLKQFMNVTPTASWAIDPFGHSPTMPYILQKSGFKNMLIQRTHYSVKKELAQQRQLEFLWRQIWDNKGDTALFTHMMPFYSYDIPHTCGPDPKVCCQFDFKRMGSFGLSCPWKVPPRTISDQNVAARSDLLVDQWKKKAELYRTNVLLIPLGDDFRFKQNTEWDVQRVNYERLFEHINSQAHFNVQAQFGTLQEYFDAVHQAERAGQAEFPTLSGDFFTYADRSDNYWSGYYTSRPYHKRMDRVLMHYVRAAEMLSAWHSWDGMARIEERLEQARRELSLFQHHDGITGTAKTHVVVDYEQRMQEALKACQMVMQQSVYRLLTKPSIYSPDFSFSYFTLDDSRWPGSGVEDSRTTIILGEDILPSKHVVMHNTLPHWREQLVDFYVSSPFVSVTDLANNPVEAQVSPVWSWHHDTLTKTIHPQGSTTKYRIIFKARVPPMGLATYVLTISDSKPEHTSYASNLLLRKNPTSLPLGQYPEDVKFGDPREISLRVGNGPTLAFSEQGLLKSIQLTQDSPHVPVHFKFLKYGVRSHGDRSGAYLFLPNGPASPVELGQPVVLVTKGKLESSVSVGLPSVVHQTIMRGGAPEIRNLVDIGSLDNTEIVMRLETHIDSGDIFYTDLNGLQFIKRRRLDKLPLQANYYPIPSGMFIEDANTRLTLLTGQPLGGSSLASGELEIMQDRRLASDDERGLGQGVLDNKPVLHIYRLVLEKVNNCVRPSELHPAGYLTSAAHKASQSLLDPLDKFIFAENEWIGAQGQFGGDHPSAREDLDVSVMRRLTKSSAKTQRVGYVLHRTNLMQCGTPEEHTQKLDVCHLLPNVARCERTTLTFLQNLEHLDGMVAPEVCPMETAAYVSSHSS

mouse GMII = target: T2, mouse GMII (Mus musculus, UniProt P27046); settings: Rabouille et al., 1999; cited from earlier work
T2 sequence (P27046 1-1150): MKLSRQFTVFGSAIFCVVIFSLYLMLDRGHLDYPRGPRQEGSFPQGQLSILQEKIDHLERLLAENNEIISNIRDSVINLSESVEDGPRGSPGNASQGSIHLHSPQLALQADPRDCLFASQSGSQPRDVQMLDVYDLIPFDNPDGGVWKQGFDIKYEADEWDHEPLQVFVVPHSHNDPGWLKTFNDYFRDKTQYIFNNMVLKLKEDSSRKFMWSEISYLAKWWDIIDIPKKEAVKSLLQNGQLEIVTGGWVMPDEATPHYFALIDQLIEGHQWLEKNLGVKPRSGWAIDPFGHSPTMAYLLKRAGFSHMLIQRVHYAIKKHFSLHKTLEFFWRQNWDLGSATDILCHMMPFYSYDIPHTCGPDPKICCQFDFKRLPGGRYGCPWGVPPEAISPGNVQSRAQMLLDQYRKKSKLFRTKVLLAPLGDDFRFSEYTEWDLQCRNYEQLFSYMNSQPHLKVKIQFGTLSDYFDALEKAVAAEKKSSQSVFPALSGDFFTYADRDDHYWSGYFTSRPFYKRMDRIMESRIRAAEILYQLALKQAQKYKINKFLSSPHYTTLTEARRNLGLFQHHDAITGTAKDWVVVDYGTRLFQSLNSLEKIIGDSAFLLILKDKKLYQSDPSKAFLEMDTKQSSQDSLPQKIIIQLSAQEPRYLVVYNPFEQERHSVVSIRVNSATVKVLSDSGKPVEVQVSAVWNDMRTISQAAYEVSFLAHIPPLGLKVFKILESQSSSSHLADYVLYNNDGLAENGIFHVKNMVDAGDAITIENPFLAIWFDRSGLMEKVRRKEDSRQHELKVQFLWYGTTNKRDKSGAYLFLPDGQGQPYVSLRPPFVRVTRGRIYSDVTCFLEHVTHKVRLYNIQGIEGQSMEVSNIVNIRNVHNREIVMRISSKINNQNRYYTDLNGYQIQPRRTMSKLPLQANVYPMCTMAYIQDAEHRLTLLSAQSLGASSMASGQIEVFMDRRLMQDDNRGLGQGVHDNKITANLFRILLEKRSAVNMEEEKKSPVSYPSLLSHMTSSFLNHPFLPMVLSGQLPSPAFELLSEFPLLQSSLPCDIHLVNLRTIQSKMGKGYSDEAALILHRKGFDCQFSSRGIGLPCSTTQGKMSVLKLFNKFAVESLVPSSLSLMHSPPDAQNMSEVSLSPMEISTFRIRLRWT

[2] = tested on: Drosophila Schneider (S2) cells; assay: viability of induced S2 cells by Trypan blue exclusion; type: cell-based; settings: 10-20 μM cadmium, until the end of the induction period
Method: Initial experiments were carried out in S2 medium containing 10% bovine serum. Metal concentrations used to induce and time of induction were optimized for dGMII production. […] Cadmium has been reported to be detrimental to the growth of cells. However, at the concentrations used here, the cells continued to grow and maintain greater than 90% viability (as assessed by Trypan blue exclusion) until the end of the induction period. Cells were maintained in the continous presence of cadmium for up to three passages.

dGMII [3] = target: T3, dGMII (Drosophila melanogaster, UniProt Q24451); assay: binding affinity of inhibitors for dGMII; settings: relative to DMNJ; data not shown
T3 sequence (Q24451 1-1108): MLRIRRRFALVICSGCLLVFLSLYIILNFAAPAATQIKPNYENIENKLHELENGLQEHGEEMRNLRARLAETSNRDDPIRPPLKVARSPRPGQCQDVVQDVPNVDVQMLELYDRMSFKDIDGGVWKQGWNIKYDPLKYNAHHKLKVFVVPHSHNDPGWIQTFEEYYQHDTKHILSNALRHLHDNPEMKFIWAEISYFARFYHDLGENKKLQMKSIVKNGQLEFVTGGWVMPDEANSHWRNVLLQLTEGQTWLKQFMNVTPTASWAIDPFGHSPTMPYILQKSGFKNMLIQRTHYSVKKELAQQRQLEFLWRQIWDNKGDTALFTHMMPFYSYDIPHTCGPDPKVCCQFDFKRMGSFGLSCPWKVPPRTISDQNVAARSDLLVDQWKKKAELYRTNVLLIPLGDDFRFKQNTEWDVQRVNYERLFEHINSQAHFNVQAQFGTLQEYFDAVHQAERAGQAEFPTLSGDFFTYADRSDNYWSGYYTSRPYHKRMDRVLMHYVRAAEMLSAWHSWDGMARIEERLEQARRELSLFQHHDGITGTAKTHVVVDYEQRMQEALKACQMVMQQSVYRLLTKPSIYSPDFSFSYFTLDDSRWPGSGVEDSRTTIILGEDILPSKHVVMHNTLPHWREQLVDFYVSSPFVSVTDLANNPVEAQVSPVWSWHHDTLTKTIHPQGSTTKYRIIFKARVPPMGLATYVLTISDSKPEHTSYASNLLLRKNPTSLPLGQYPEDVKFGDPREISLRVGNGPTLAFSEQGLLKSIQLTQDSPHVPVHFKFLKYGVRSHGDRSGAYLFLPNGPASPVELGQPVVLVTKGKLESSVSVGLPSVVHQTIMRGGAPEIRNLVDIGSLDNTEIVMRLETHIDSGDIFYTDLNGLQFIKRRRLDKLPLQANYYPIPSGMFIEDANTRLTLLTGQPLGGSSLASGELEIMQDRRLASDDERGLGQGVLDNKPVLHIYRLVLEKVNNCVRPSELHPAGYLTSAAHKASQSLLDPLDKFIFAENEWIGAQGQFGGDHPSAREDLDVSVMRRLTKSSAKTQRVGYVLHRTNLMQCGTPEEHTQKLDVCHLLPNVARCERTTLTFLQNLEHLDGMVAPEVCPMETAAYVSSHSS

NC(CO)(CO)CO [Tris, tris(hydroxymethyl)-aminomethane, reference compound]
inhibition of dGMII activity (dGMII [1]; Rabouille et al., 1999): inhibit

[Cu+2] [copper]
inactivation of mouse GMII (mouse GMII): effectively inactivate | inactivation of Drosophila GMII (dGMII [1]; Rabouille et al., 1999): effectively inactivate | IC50 (dGMII [1]; read-out: inhibition of dGMII by copper, IC50): 25 µM

[Cd] [Cadmium]
cell viability (Trypan blue exclusion) [2]: greater than 90%

O[C@H]1[C@H]2[C@H](O)CCCN2C[C@H]1O [swainsonine]
binding affinity for the enzyme, compared to the substrate-mimic DMNJ (dGMII [3]): 10,000 times higher
